How the values were obtained:
[1] = target: SARS-CoV-2 Main Protease (SARS-CoV-2) (UniProt P0DTD1)
[2] = target: SARS-CoV-2 Main Protease (SARS-CoV-2) (UniProt P0DTD1); remark: listed apart in the source

Compound | inhibition ([1]; 50.0 µM) [%] | inhibition ([2]; 20.0 µM) [%] | inhibition ([2]; 50.0 µM) [%] | relative solubility at 20 uM | relative solubility at 100 uM | inhibition ([1]; 20.0 µM) [%] | IC50 [1] [µM]
CC1(C)Cc2cccc(OCCNC(=O)c3cc(=O)[nH]c4ccc(Cl)cc34)c2O1 | 18.7 | 5.99 | 28.8 | 0.97 | 0.91 |  | 
Cc1cnc(CC(=O)Nc2cccnc2)o1 | 0 |  | -9.91 | 0.99 | 1 | 0 | 
Cc1nc(-c2cccc(CNC(=O)Nc3cccc(CN4CCCC4=O)c3)c2)n[nH]1 | 0 | 2.12 | 2.95 | 0.98 | 0.98 |  | 
Cc1nnn(C)c1NC(=O)Cc1cccc(Cl)c1 | 5.47 | -9.24 | -12.3 | 1 | 1 |  | 
N#Cc1cnn(-c2ccccc2NC(=O)Cc2ccn[nH]2)c1N |  | -9.14 | 2.96 | 1 | 0.96 | 0 | 
O=C(NCCNc1ccccc1)c1cc(=O)[nH]c2ccccc12 | 35.4 | 32 | 61.6 | 1 | 0.98 |  | 
Cc1csc(C(=O)N/N=C/c2cccnc2)c1N | -6.32 | -0.86 | -19.8 | 0.99 | 0.93 |  | 
N#Cc1cccc(CN2CCN(C(=O)CCl)CC2)c1 |  | 53.4 | 85.2 | 1.01 | 0.99 | 64.3 | 12.2
Cc1cnn(-c2ccncc2NC(=O)Cn2cc(C)c3ccccc32)c1 | 0 | -8.61 | -0.417 | 0.59 | 0.1 |  | 
Cc1ccncc1NC(=O)CN1CCOCC1 | 5.7 | -2.39 | -7.76 | 1 | 1 |  | 
O=C(NCCNc1ccncc1)c1cccc(S(=O)(=O)Nc2ccccc2-c2ccccc2)c1 | -3.32 | -20.4 | -32.8 | 0.95 | 0.94 |  | 
O=C1CC(c2cccc(NC(=O)Cc3cncnc3)c2)CN1 (centres undefined) | 0 | 3.83 | 10.8 | 1 | 1 |  | 
C=CC(=O)N(c1ccc(SC)cc1)C(C(=O)Nc1ccc(OC)cc1)c1cccnc1 (centres undefined) |  | 13.5 | 27 | 0.91 | 0.77 | 0 | 
O=C(CC(=O)N1CCOCC1)NCc1ccccc1 | 0 | -1.44 | 15.1 | 0.99 | 1 | 0 | 
C=CC(=O)N(c1cc(C(C)(C)C)on1)C(C(=O)NCCc1cccc(F)c1)c1cccnc1 (centres undefined) | 100 | 16.7 | 31.3 | 0.98 | 0.97 |  | 10.9
Cc1nnc(NC(=O)Cc2cccc(Cl)c2F)n1C | 0 | -12.7 | -10.8 | 1.01 | 1 |  | 
CS(=O)(=O)Nc1cccc(C(=O)Oc2cccc(N3CCCC3=O)c2)c1 | 11.2 |  | 35.7 | 0.99 | 0.86 | 0 | 
O=C(NCCNc1ccnc2cc(Cl)ccc12)Nc1ccc(F)cc1 | 0 | 20.4 | 29.5 | 0.99 | 0.94 | 0 | 
COc1ccc(C(=O)Nc2cccc(/C=C3/C(=O)NC(=O)c4ccccc43)c2)cc1 | 34.2 | -3.55 | -22.9 | 0.48 | 0.54 |  | 

From the COVID Moonshot data (paper PMC11187573), “Identification of SARS-CoV-2 Mpro inhibitors through deep reinforcement learning for de novo drug design and computational chemistry approaches” (RSC Medicinal Chemistry, 2024)
